Test results from the supplement of paper PMC11451515.

How the values were obtained:
Conditions in all cases: 48 h
NOMO1 [1] = test: AUC of viability dose-response curve (% viability x log10 dose units); higher = less sensitive
Procedure, shortened: (§1)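 Over 48 h at 37°C, leukemia cells in 1536-well plates (500 or 1000 cells/well), adapted to each medium, received library compounds in DMSO at 11 threefold doses from 47 μM to 0.79 nM. CellTiter-Glo One luminescence, normalised per plate to DMSO and cell-free wells, was fitted by a four-parameter log-logistic function of log10 dose. The area under the curve was then integrated by trapezoidal rule, after scaling curves above full viability and removing those that failed quality control.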

SEM cells [2] = test: as above
Procedure, shortened: as §1

P12-Ichikawa [3] = test: as above
Procedure, shortened: as §1

NOMO1 [4] = test: cell viability relative to DMSO control; higher = less cytotoxic
Procedure, shortened: (§2)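 Library compounds in DMSO were pin-dosed into 1536-well plates (5 μl) holding NOMO1 or SEM (500 cells/well) or P12-Ichikawa (1000 cells/well) leukemia cells, across an 11-point threefold series of 47 μM to 0.79 nM. Each cell line had been adapted for at least four passages in each medium. CellTiter-Glo One luminescence was read after 48 h at 37°C. Viability is the per-plate percentage relative to DMSO wells, with cell-free wells as background.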

SEM cells [5] = test: as above
Procedure, shortened: as §2

P12-Ichikawa [6] = test: as above
Procedure, shortened: as §2

NC(=O)c1cccc2cn(-c3ccc([C@@H]4CCCNC4)cc3)nc12
AUC of viability dose-response curve
Conditions	NOMO1 [1]	P12-Ichikawa [3]	SEM cells [2]
HPLM + 10% dialyzed FBS	468	453	438
RPMI 5 mM glucose + 10% FBS	456	441	448
RPMI 5 mM glucose + 10% dialyzed FBS	470	458	446

cell viability [%]
Conditions	NOMO1 [4]	P12-Ichikawa [6]	SEM cells [5]
HPLM + 10% dialyzed FBS, 0.000781 µM	90.2	90.3	86.9
HPLM + 10% dialyzed FBS, 0.00234 µM	97.4	94.4	90.8
HPLM + 10% dialyzed FBS, 0.00702 µM	114	103	105
HPLM + 10% dialyzed FBS, 0.0211 µM	103	104	126
HPLM + 10% dialyzed FBS, 0.0632 µM	118	110	129
HPLM + 10% dialyzed FBS, 0.19 µM	122	105	98.9
HPLM + 10% dialyzed FBS, 0.569 µM	114	108	112
HPLM + 10% dialyzed FBS, 1.71 µM	111	106	116
HPLM + 10% dialyzed FBS, 5.12 µM	98.2	101	91.8
HPLM + 10% dialyzed FBS, 15.4 µM	117	86.9	63.8
HPLM + 10% dialyzed FBS, 46.1 µM	69	33.8	50
RPMI 5 mM glucose + 10% FBS, 0.000781 µM	83.5	83.9	97.8
RPMI 5 mM glucose + 10% FBS, 0.00234 µM	82.2	90.4	111
RPMI 5 mM glucose + 10% FBS, 0.00702 µM	100	96.8	113
RPMI 5 mM glucose + 10% FBS, 0.0211 µM	102	100	110
RPMI 5 mM glucose + 10% FBS, 0.0632 µM	93.8	103	102
RPMI 5 mM glucose + 10% FBS, 0.19 µM	97.1	105	92.8
RPMI 5 mM glucose + 10% FBS, 0.569 µM	91.5	101	119
RPMI 5 mM glucose + 10% FBS, 1.71 µM	106	102	113
RPMI 5 mM glucose + 10% FBS, 5.12 µM	103	103	120
RPMI 5 mM glucose + 10% FBS, 15.4 µM	105	75.5	80.1
RPMI 5 mM glucose + 10% FBS, 46.1 µM	82.2	24.5	32.5
RPMI 5 mM glucose + 10% dialyzed FBS, 0.000781 µM	83.8	94.1	94.3
RPMI 5 mM glucose + 10% dialyzed FBS, 0.00234 µM	111	98.6	80.8
RPMI 5 mM glucose + 10% dialyzed FBS, 0.00702 µM	108	103	93.4
RPMI 5 mM glucose + 10% dialyzed FBS, 0.0211 µM	111	105	106
RPMI 5 mM glucose + 10% dialyzed FBS, 0.0632 µM	108	108	104
RPMI 5 mM glucose + 10% dialyzed FBS, 0.19 µM	122	113	90
RPMI 5 mM glucose + 10% dialyzed FBS, 0.569 µM	114	103	109
RPMI 5 mM glucose + 10% dialyzed FBS, 1.71 µM	102	106	124
RPMI 5 mM glucose + 10% dialyzed FBS, 5.12 µM	110	101	94.6
RPMI 5 mM glucose + 10% dialyzed FBS, 15.4 µM	118	88.4	66.4
RPMI 5 mM glucose + 10% dialyzed FBS, 46.1 µM	98.8	55.5	44.4
